Here are results for 9 molecules from patent publication US5922891A, “2-substituted 1,8-dihydroxy-9(10H)-anthracenone pharmaceuticals” (priority 1997, dated 1999).

Usually IC50 stands for the point on the concentration scale where inhibition reaches its midpoint.

A short description of data set [1]: Deoxyribose degradation as a measure of hydroxyl radical formation. Type of data set: biochemical. The following applies: 75 μM test compound; controls < 0.1. The procedure:
^c Deoxyribose degradation as a measure of hydroxyl radical formation
Indicated values are μmoles of malondialdehyde per mmole of deoxyribos
released by 75 μM test compound (controls < 0.1).
Degradation of deoxyribose provides a measurement of the amount of hydroxyl radical formation caused by the test compounds. The assay used to determine degradation of 2-deoxy-D-ribose followed generally the procedures of Gutteridge, J. M. C., Biochem. J., 224: 761-767 (1984) and Laughton, et al., Biochem. Pharmacol., 38: 2859-2865 (1989). The following reagents were added to glass tubes in the order and at the final concentrations listed. 0.3 mL kH2 PO4 --KOH buffer, pH 7.4 (30 mM), 0.2 ml double distilled H2 O, 0.2 ml 2-deoxy-D-ribose (2 mM), 0.2 ml FeCl3.6H2 O (0.1 mM), 0.1 ml 2-substituted anthracenone ([…]). Stock solutions of each of the 2-substituted anthracenone compounds were made up fresh before use. Appropriate blanks and controls using an acetronitrile vehicle were performed.
Final reaction volumes were standardized to 1.0 ml. The reaction mixtures were incubated for 2 hours at 37° C. in a shaking water bath at 50 rpm. 1 ml of 2.8% (w/v) trichloracetic acid and 1 ml of 1% (w/v in 0.05 N NaOH) 2-thiobarbituric acid (TBA) were added, and the samples were heated at 100° C. for 15 minutes and then cooled in an ice bath (5 minutes). 2 ml of each reaction mixture was treated with 0.05 ml of 36% (w/v) HCl and 2 of 1-butanol, followed by vigorous shaking with a vortex mixer (Heidolph) for 15 seconds. The organic layer was separated by centrifugation at 3000 rpm (15 minutes) and absorbance at 532 nm was measured against butanol. Calibration was performed using a malondialdehyde (MDA) standard prepared by hydrolysis of 1,1,3,3-tetraethoxypropane (Gutteridge, J. M. C., Anal. Biochem., 69: 518-526 (1975). TBA reactive material was expressed in terms of μmol MDA per μmol deoxyribose. The results of the assay are provided in Table I.

Another data set concerns HaCaT cells. As to the kind of experiment: Antiproliferative activity against HaCaT cells (human keratinocyte cell line). Type of data set: cell-based. The following applies: 48 h, read-out: AA IC50 (antiproliferative activity). The procedure: HaCaT cells were grown in Dulbecco's modified Eagle's medium (DMEM, No. 041-11954A, Gibco) supplemented with 10% fetal calf serum, penicillin (100 U/mL), and streptomycin (100 μg/mL) in a humidified incubator containing 8% CO2 at 37° C. Cells (2.5·10^4 /1.1 ml per well) were seeded on 24-well multidishes and grown in DMEM. After 24 hours of growth, the medium was replaced with fresh medium and a test compound (0.1-5 μM) was added from freshly made stock solutions, which were prepared in DMSO and diluted with DMEM. The final concentration of DMSO in the culture medium was 0.2%. Controls were performed using DMSO or medium alone. Forty-eight hours after addition of a test compound to the culture, the medium was removed and each well was rinsed with phosphate-buffered saline (PBS, 100 μL). The cells were then incubated with sterile 0.5% trypsin, 0.2% EDTA in PBS for 20 minutes at 37° C. The detached cells from each well were suspended in DMEM and dispersed as single cells by gentle pipetting through an Eppendorf pipette. Cell growth was determined directly by counting the keratinocytes on a Neubauer counting chamber using phase contrast microscopy. Inhibition of cell proliferation was calculated by a comparison of the mean value of the test compound (N=3) with the control (N=6-8) activity: (1-test compound/control)×100.

Data set [2] is described as follows: Inhibition of AAPH-induced lipid peroxidation in bovine brain phospholipid liposomes. The format is biochemical. The following applies: AAPH-induced; bovine brain phospholipid liposomes; N = 3 or more; read-out: LPO IC50 (inhibition of lipid peroxidation). As to the method: Phospholipids were prepared essentially as described by Gutteridge, J. M. C., (Anal. Biochem., 82: 76-82 (1977)). Bovine brain tissue was cooled on ice, freed from blood vessels and washed repeatedly with 0.15 M NaCl, pH 7.4. The tissue was cut into pieces and then macerated with an ultra-turrax, passed through a fine-meshed sieve, and extracted four times with four times the volume of acetone. The extraction mixture was filtered by suction to remove the acetone, the residue dried under vacuum, and then repeatedly extracted with petroleum ether (40-60) using twice the volume of the original brain homogenate. The combined extracts were filtered, dried at 45° C., and dissolved in ether (one fifth the original brain volume). The mixture was treated with five times the volume of acetone, and the resulting precipitate was collected by suction-filtration, dried and stored under N2 at -20° C. in the dark. Bovine brain phospholipids were weighed into glass tubes and shaken in a vortex mixer (Heidolph) in the presence of five small glass beads (.phi. 4 mm) for 1 minute. The phospholipids were suspended in 0.15 M NaCl, pH 7.4, to a final concentration of 5 mg/ml. The mixture was purged with N2 for 1 minute and vigorously dispersed in a vortex mixer for 5 minutes. The liposomes were allowed to swell for 1 hour at 4° C., and vesicles with a mean size of 1-10 μm were obtained according to the method of Bangham, et al., (J. Mol. Biol., 13:238-252 (1965). The liposomes were stimulated with the azo initiator 2 2'-azobis (2-amidinopropane) hydrochloride according to the method of Gutteridge, J. M. C., (Anal. Biochem. 82:76-82 (1977)).
The following reagents were added to the glass tubes containing stimulating bovine brain phospholipid piposomes in the order and at the final concentrations listed: 0.3 ml HK2 PO4 --KOH buffer, pH 7.4 (30 mM), 0.29 ml double distilled H2 O, 0.2 ml liposomes (1 mg/ml), 0.2 ml FeCl3.H2 O (0.1 mM), 0.01 ml 2-substituted anthracenone compound of the invention (variable concentrations).
Appropriate blanks and controls using the vehicle (acetone) were conducted. The final reaction volumes were standardized to 1.0 ml. The reaction mixtures were incubated for 1 hour at 37° C. in a shaking water bath. […] of 20% (w/v) BHT, 0.5 ml 25% (w/v) HCl and 0.5 ml of 1% 2-thiobarbituric acid were added and the samples were heated at 100° C. for 15 minutes and then cooled in an ice bath (5 minutes). 2 ml of 1-butanol were added and the mixtures were vigorously shaken in a vortex mixer (Heidolph) for 15 seconds. The organic layer was separated by centrifugation at 3000 rpm (15 minutes) and absorbance at 532 nm was measured against butanol.

The structures appear in SMILES notation. Bounds are passed on as bounds.

Turning to `O=C1c2c(O)cccc2Cc2ccc(C(CCc3ccccc3)C(=O)O)c(O)c21` (stereo not drawn) [XA, 2-(9,10-Dihydro-1,8-dihydroxy-9-oxo-2-anthracene)-4-phenylbutanoic acid], the “DD (deoxyribose degradation, malondialdehyde released)” value (from here on “DD”) in data set [1] was 2.47 ± 0.16 μmol of MDA/mmol. Also, the IC50 is above 5 µM in the data set with HaCaT cells and 62 µM in data set [2].
Turning to `CC(C)C(C(=O)O)c1ccc2c(c1O)C(=O)c1c(O)cccc1C2` (stereo not drawn) [VIIIA, 2-(9,10-Dihydro-1,8-dihydroxy-9-oxo-2-anthracene)-3-methylbutanoic acid], the “DD” value in data set [1] is given as 3.58 ± 0.30 μmol of MDA/mmol. Also, the IC50 is above 5 µM in the data set on HaCaT cells and 155 µM in data set [2].
Taken in the same sequence, the figures for `O=C(CCCCc1ccc2c(c1O)C(=O)c1c(O)cccc1C2)NO` [IVC, N-Hydroxy-5-(9,10-dihydro-1,8-dihydroxy-9-oxo-2-anthracene)pentanamide] were 1.38 ± 0.09 μmol of MDA/mmol, 2 µM and 62 µM.
`CN(O)C(=O)CCCCCc1ccc2c(c1O)C(=O)c1c(O)cccc1C2` [VD, N-Hydroxy-N-methyl-6-(9,10-dihydro-1,8-dihydroxy-9-oxo-2-anthracene)hexanamide]: the IC50 with HaCaT cells stood at 0.9 µM; in data set [2], 15 µM.
With `CN(O)C(=O)CCCc1ccc2c(c1O)C(=O)c1c(O)cccc1C2` [IIID, N-Hydroxy-N-methyl-4-(9,10-dihydro-1,8-dihydroxy-9-oxo-2-anthracene)butanamide], the “DD” value in data set [1] is on record as 1.50 ± 0.02 μmol of MDA/mmol. Also, the IC50 in data set [2] was 37 µM.
On to `CN(O)C(=O)CCc1ccc2c(c1O)C(=O)c1c(O)cccc1C2` [IID, N-Hydroxy-N-methyl-3-(9,10-dihydro-1,8-dihydroxy-9-oxo-2-anthracene)propionamide], for which the “DD” value in data set [1] is listed as 0.92 ± 0.03 μmol of MDA/mmol. Further, the IC50 in data set [2] is 11 µM.
As for `O=C(O)CCCCc1ccc2c(c1O)C(=O)c1c(O)cccc1C2` [IVA, 5-(9,10-Dihydro-1,8-dihydroxy-9-oxo-2-anthracene) pentanoic acid], in data set [1], the “DD” value is 2.62 ± 0.41 μmol of MDA/mmol. The IC50 with HaCaT cells is above 5 µM; in data set [2] it was 105 µM.
Taken in the same sequence, the figures for `CC(C)C(C(=O)N(C)O)c1ccc2c(c1O)C(=O)c1c(O)cccc1C2` (stereo not drawn) [VIIID, N-Hydroxy-N-methyl-2-(9,10-dihydro-1,8-dihydroxy-9-oxo-2-anthracene)-3-methylbutanamide] were 0.86 ± 0.01 μmol of MDA/mmol, 1.5 µM and 12.5 µM.
For `CN(O)C(=O)Cc1ccc2c(c1O)C(=O)c1c(O)cccc1C2` [ID, N-Hydroxy-N-methyl-(9,10-dihydro-1,8-dihydroxy-9-oxo-2-anthracene)acetamide] the same measures were 1.67 ± 0.08 μmol of MDA/mmol, 0.8 µM and 29 µM.
